Assay results from ChEMBL document CHEMBL3120092, “Discovery of GS-9669, a thumb site II non-nucleoside inhibitor of NS5B for the treatment of genotype 1 chronic hepatitis C infection” (J Med Chem, 2014).

Key:
[1] = test system: Hepatitis C virus; assay: Antiviral activity against HCV genotype 1 infected in human patient assessed as log10 reduction in viral RNA in plasma at 700 mg/kg, bid after 8 days; type: functional, Hepacivirus hominis
[2] = Cytotoxicity against human MT4 cells after 5 days by Cell Titre Glo assay; type: cell-based
[3] = test system: Hepatitis C virus; assay: Antiviral activity against Hepatitis C virus H77 genotype 1a infected in human HuH7 cells assessed as intrinsic antiviral potency after 72 hrs by luciferase reporter gene assay; type: functional, organism-based, Hepacivirus hominis; settings: genotype 1a H77, Huh-7, 72 h
[4] = test system: Hepatitis C virus; assay: Antiviral activity against Hepatitis C virus Con1 genotype 1b infected in human HuH7 cells after 72 hrs by luciferase reporter gene assay; type: functional, organism-based, Hepacivirus hominis; settings: isolate Con1, Huh-7, 72 h
[5] = test system: Hepatitis C virus; assay: Antiviral activity against HCV genotype 1b infected in human patient assessed as log10 reduction in viral RNA in plasma at 750 mg/kg, bid after 3 days; type: functional, Hepacivirus hominis
[6] = test system: Hepatitis C virus; assay: Antiviral activity against Hepatitis C virus H77 genotype 1a infected in human HuH7 cells assessed as observed antiviral potency after 72 hrs by luciferase reporter gene assay; type: functional, organism-based, Hepacivirus hominis; settings: genotype 1a H77, Huh-7, 72 h
[7] = Cytotoxicity against human HuH7 cells after 3 days by Cell Titre Glo assay; type: cell-based, Huh-7
[8] = Fraction unbound in cell culture medium at 2 uM at pH 7.4 by equilibrium dialysis method; type: ADME
[9] = Lipophilicity, log D of the compound by chromatography; type: physicochemical
[10] = Intrinsic cytotoxicity against human MT4 cells after 5 days by Cell Titre Glo assay; type: cell-based
[11] = Mean residence time in Sprague-Dawley rat at 0.4 mg/kg, iv; type: ADME, organism-based; set-up: dose 0.4 mg/kg, route intravenous; settings: in vivo
[12] = test system: Hepatitis C virus; assay: Antiviral activity against Hepatitis C virus H77 genotype 1a infected in human HuH7 cells assessed as plasma adjusted antiviral potency after 72 hrs by luciferase reporter gene assay; type: functional, organism-based, Hepacivirus hominis; settings: genotype 1a H77, Huh-7, Plasma
[13] = Mean residence time in Sprague-Dawley rat at 0.5 mg/kg, iv; type: ADME, organism-based; set-up: dose 0.5 mg/kg, route intravenous; settings: in vivo
[14] = test system: Hepatitis C virus; assay: Antiviral activity against HCV genotype 1b harboring NS5B polymerase M423T mutant infected in human HuH7-Lunet cells by luciferase reporter gene assay; type: functional, organism-based, Hepacivirus hominis; settings: Huh-7
[15] = Half life in human patient infected with chronic HCV; type: ADME, organism-based; settings: in vivo
[16] = test system: Hepatitis C virus; assay: Antiviral activity against HCV infected in human patient assessed as log10 reduction in viral RNA in plasma at 500 mg/kg, qd after 3 days; type: functional, Hepacivirus hominis
[17] = test system: Hepatitis C virus; assay: Selectivity ratio of EC50 for HCV genotype 1b harboring NS5B polymerase M423T mutant to EC50 for HCV genotype 1b harboring wild type NS5B polymerase; type: functional, Hepacivirus hominis
[18] = test system: Hepatitis C virus; assay: Antiviral activity against HCV genotype 1b harboring wild type NS5B polymerase infected in human HuH7-Lunet cells by luciferase reporter gene assay; type: functional, organism-based, Hepacivirus hominis; settings: Huh-7

Row | Compound | FC [1] | CC50 at 120 h [2] [nM] | EC50 [3] [nM] | EC50 [4] [nM] | FC [5] | EC50 [6] [nM] | CC50 at 72 h [7] [nM] | fraction unbound at 2 µM [8] | chromatographic logD [9] | CC50 at 120 h [10] [nM] | MRT [11] [h] | EC50 [12] [nM] | MRT [13] [h] | EC50 [14] [nM] | half-life [15] [h] | FC [16] | Ratio EC50 [17] | EC50 [18] [nM]
1 | CCc1cc(CC[C@]2(C3CCCC3)CC(O)=C(Cc3nc4nc(C)cc(C)n4n3)C(=O)O2)cc(CC)n1 [FILIBUVIR] | 2.3 |  |  |  |  |  |  |  |  |  |  |  |  |  |  |  |  | 
2 | CC(C)(C)C#Cc1cc(N(C(=O)[C@H]2CC[C@H](C)CC2)[C@H]2CC[C@H](O)CC2)c(C(=O)O)s1 [LOMIBUVIR] |  | > 20000 | 2.8 | 6 | 3.7 | 13 | ≥ 20000 | 0.19 |  |  |  |  |  |  |  |  |  | 
3 | CC(C)(C)C#Cc1cc(N(C(=O)[C@H]2CC[C@H](C)CC2)[C@H]2CC[C@H](Oc3ccc4nccn4n3)CC2)c(C(=O)O)s1 |  | > 20000 | 1.3 |  |  | 192 |  |  | 2.4 | 133 | 6.2 | 1130 |  |  |  |  |  | 
4 | CC1=CC[C@H](C(=O)N(c2cc(C#CC(C)(C)C)sc2C(=O)O)[C@H]2CC[C@](O)(CO[C@H]3CCOC3)CC2)CC1 [RADALBUVIR] |  | > 20000 | 2.9 |  |  | 11 |  |  |  | 12100 |  | 128 | 2.7 | 14 | 6 | 3.6 | 2 | 6
